Data published in patent US9018207B2, “Method of treatment or prophylaxis” (Spinifex Pharmaceuticals Pty Ltd, priority 2004, dated 2015).
Values joined by “and” are separate entries in the source; they are usually repeats but may differ in a detail not shown here. Identical values can stand only once. “Also recorded” adds a separate entry of the source.

Columns and labels:
Format in all cases: in vivo, Sprague-Dawley (SD) rats
[1] = test system: rats with a chronic constriction injury (CCI) of the sciatic nerve; assay: Antinociception (von Frey paw withdrawal thresholds) in the contralateral hindpaw of CCI-rats
Description: (§1) Adult male Sprague-Dawley (SD) rats were anaesthetized with Zoletil 100® (0.09 ml/200 g) and Xylazil-20™ (0.1 mL/200 g) administered by intraperitoneal (i.p.) injection, and a chronic constriction injury (CCI) of the sciatic nerve was produced according to the method of Bennett and Xie (1988). Briefly, the left common sciatic nerve was exposed at mid-thigh level by blunt dissection through the biceps femoris. Proximal to the trifurcation, 10 mm of nerve was freed of adhering tissue and four loose ligatures (3.0 silk) were tied around the sciatic nerve 1 mm apart). The incision was closed in layers. After surgery, rats received benzylpenicillin (60 mg s.c.) to prevent infection and were kept warm during surgical recovery. Rats were housed singly for 10-14 days prior to AT2 receptor antagonist or vehicle (normal saline) administration. After CCI-surgery, rats were inspected daily with regard to posture of the affected hindpaw, exploring behavior, body weight and water intake, and any signs of autotomy. Whilst under light anaesthesia with CO2/O2 (50:50%), CCI-rats or STZ-diabetic rats received a single bolus injection (200 μL) of one AT2 receptor antagonist (PD123,319 or L-159,686) by the intravenous (i.v.) or the intraperitoneal (i.p.) route, using a 250 μL Hamilton syringe. The test compounds were administered to CCI-rats at 14 days after CCI-surgery and to STZ-diabetic rats at approximately 8-wks after the induction of diabetes with STZ. Relief of tactile (mechanical) allodynia, the defining symptom of neuropathic pain, by each of the test agents, PD123,319 or L-159,686, was quantified using calibrated von Frey filaments as described below. Tactile allodynia was quantified using calibrated von Frey filaments. Rats were placed in wire mesh testing cages (20 cm×20 cm×20 cm) and allowed to acclimatise for approximately […] Von Frey filaments were used to determine the lowest mechanical threshold required for a brisk paw withdrawal reflex. Briefly, the filament that produced the lowest force was applied to the plantar surface of the hindpaw until the filament buckled slightly. Absence of a response after 5 s prompted use of the next filament in an ascending sequence. Filaments used produced a buckling weight of 2, 4, 6, 8, 10, 12, 14, 16, 18 and 20 g and these were calibrated prior to each testing session. […] For CCI-rats, baseline von Frey paw withdrawal thresholds (PWTs) were quantified prior to CCI-surgery, and at 14 days post-surgery immediately prior to drug administration. For STZ-diabetic rats, baseline von Frey PWT values were determined prior to the induction of diabetes with STZ and at 1-2 weekly intervals thereafter for 8 weeks to document the temporal development of tactile allodynia. For all rats, baseline PWTs were the mean of three readings taken, 5 min apart before drug administration and were determined separately for each hindpaw. After administration of each test compound, von Frey PWTs were determined at the following post-dosing times: 0.08, 0.25, 0.5, 0.75, 1, 1.25, 1.5, 2 and 3 h. Paw withdrawal thresholds (PWTs; g) were plotted against time to construct response versus time curves for each of the two test compounds (PD123,319 and L-159,686) for each dose and dosing route. Whilst adult male SD rats were anaesthetized with 3% isoflurane: 97% oxygen, four loose ligatures were tied around one sciatic nerve to produce a unilateral chronic constriction injury (CCI) according to the method of Bennett and Xie (1988, Pain 33: 87-107). […]

[2] = test system: rats with a chronic constriction injury (CCI) of the sciatic nerve; assay: Relief of tactile allodynia (von Frey paw withdrawal thresholds) in the ipsilateral (injured) hindpaw of CCI-rats; details: for doses required to produce significant relief of tactile allodynia in CCI-rats compared with STZ-diabetic rats: CCI-rats vs STZ-diabetic rats
Description: as §1, with “87-107). Briefly, the left common sciatic nerve was exposed at mid-thigh level by blunt dissection through the biceps femoris. Proximal to the trifurcation, 10 mm of nerve was freed of adhering tissue and four loose ligatures (3.0 silk) were tied around the sciatic nerve 1 mm apart). The incision was closed in layers. After surgery, rats received benzylpenicillin (60 mg s.c.) to prevent infection and were kept warm during surgical recovery.” for “87-107).”

STZ-diabetic rats = assay: Relief of tactile allodynia (von Frey paw withdrawal thresholds) in the hindpaws of STZ-diabetic rats (model of PDN); details: for relief of tactile allodynia (summary in discussion): STZ-diabetic rat model of PDN; for relief of tactile allodynia (summary in discussion) / onset of anti-allodynia (summary in discussion): single i.p. bolus doses; for reversal of tactile allodynia in the hindpaws: i.p., higher doses tested
Description: Adult male SD rats were anaesthetized in a manner similar to that described above, to facilitate insertion of a polyethylene cannula (previously filled with 0.1 ml of sterile saline) into the right common jugular vein. Jugular vein cannulae were tested for correct placement by the withdrawal of a small amount of blood. Diabetes was induced following an acute i.v. injection of streptozotocin (STZ) (80 mg/kg) in 0.1 M citrate buffer (pH 4.5) into the jugular vein. Diabetes was confirmed by monitoring the water intake and blood glucose concentration in individual rats. Blood glucose was monitored using either (Glucostix™) or a Precision QID™ test kit.
Consistent with previous studies in the literature (Calcutt et al., 1996, Pain. 68(2-3):293-9), rats that drank more than 100 mL of water per day by 10 days post-STZ injection, were classified as diabetic, and only rats with blood glucose concentrations exceeding 15 mM were included in the subsequent experiments. By comparison, the water intake of control non-diabetic rats was approximately 20 mL per day and blood glucose concentrations were in the range 5-6 mM, consistent with the literature (Calcutt et al., 1996, supra).
Whilst under light anaesthesia with CO2/O2 (50:50%), CCI-rats or STZ-diabetic rats received a single bolus injection (200 μL) of one AT2 receptor antagonist (PD123,319 or L-159,686) by the intravenous (i.v.) or the intraperitoneal (i.p.) route, using a 250 μL Hamilton syringe. The test compounds were administered to CCI-rats at 14 days after CCI-surgery and to STZ-diabetic rats at approximately 8-wks after the induction of diabetes with STZ. Relief of tactile (mechanical) allodynia, the defining symptom of neuropathic pain, by each of the test agents, PD123,319 or L-159,686, was quantified using calibrated von Frey filaments as described below.
Tactile allodynia was quantified using calibrated von Frey filaments. Rats were placed in wire mesh testing cages (20 cm×20 cm×20 cm) and allowed to acclimatise for approximately […] Von Frey filaments were used to determine the lowest mechanical threshold required for a brisk paw withdrawal reflex. Briefly, the filament that produced the lowest force was applied to the plantar surface of the hindpaw until the filament buckled slightly. Absence of a response after 5 s prompted use of the next filament in an ascending sequence. Filaments used produced a buckling weight of 2, 4, 6, 8, 10, 12, 14, 16, 18 and 20 g and these were calibrated prior to each testing session.
For CCI-rats, baseline von Frey paw withdrawal thresholds (PWTs) were quantified prior to CCI-surgery, and at 14 days post-surgery immediately prior to drug administration. For STZ-diabetic rats, baseline von Frey PWT values were determined prior to the induction of diabetes with STZ and at 1-2 weekly intervals thereafter for 8 weeks to document the temporal development of tactile allodynia. For all rats, baseline PWTs were the mean of three readings taken, 5 min apart before drug administration and were determined separately for each hindpaw. After administration of each test compound, von Frey PWTs were determined at the following post-dosing times: 0.08, 0.25, 0.5, 0.75, 1, 1.25, 1.5, 2 and 3 h.
Paw withdrawal thresholds (PWTs; g) were plotted against time to construct response versus time curves for each of the two test compounds (PD123,319 and L-159,686) for each dose and dosing route.
Whilst adult male SD rats were anaesthetized with 3% isoflurane: 97% oxygen, a short polyethylene cannula (0.4 mm ID, 0.8 mm OD) was inserted into the jugular vein to facilitate the intravenous (i.v) administration of a single dose of STZ (75 mg/kg). After removal of the i.v. cannula, the jugular vein was tied off, the wound was closed and topical bupivacaine was applied. Rats received benzylpenicillin (60 mg s.c.) to prevent infection and were kept warm during surgical recovery. […]

[3] = test system: rats with a chronic constriction injury (CCI) of the sciatic nerve; assay: Relief of tactile allodynia (von Frey paw withdrawal thresholds) in the ipsilateral (injured) hindpaw of CCI-rats; details: oral bolus 1 mg/kg vs same dose i.p.
[4] = CCI-rats, sodium salt, i.p. bolus 0.003 to 10 mg/kg
[5] = STZ-diabetic rats, sodium salt, i.p. bolus 0.0003 to 3 mg/kg
[6] = CCI-rats, i.p. bolus 0.03 to 3 mg/kg
[7] = STZ-diabetic rats, i.p. bolus 0.001 to 3.0 μg/kg

Question: Which results are given for CCc1nc2ccc(N(Cc3ccccc3)C(=O)c3cccs3)cc2c(=O)n1Cc1ccc(-c2ccccc2-c2nn[nH]n2)cc1.[Na] [L-161,638 (sodium salt), thiophene-2-carboxylic Acid benzyl-{2-ethyl-4-oxo-3-[2′-(2H-tetrazol-5yl)-biphenyl-4-ylmethyl]-3,4-dihydro-quinazolin-6-yl}-amide Sodium Salt]?
Answer: antinociception in the contralateral hindpaw ([1]; sodium salt, i.p. doses up to 10 mg/kg): insignificant antinociception; doses required to produce significant relief of tactile allodynia in CCI-rats compared with STZ-diabetic rats [2]: considerably larger doses; anti-allodynia (relief of tactile allodynia) in the ipsilateral hindpaw [2, 4]: dose-dependent relief of tactile allodynia; durations of action [2, 4]: 1.5 to 3 h; onset of anti-allodynia in the ipsilateral hindpaw [2, 4]: rapid onset; time of peak responses post-dosing [2, 4]: 0.5 to 0.75 h; anti-allodynia (relief of tactile allodynia) in the ipsilateral hindpaw ([2]; CCI-rats, sodium salt, i.p. bolus 0.003 to 10 mg/kg, listed as L-161,638, Sodium Salt): dose-dependent anti-allodynia; relief of tactile allodynia (summary in discussion) (STZ-diabetic rats): potent relief of tactile allodynia; reversal of tactile allodynia in the hindpaws (STZ-diabetic rats; STZ-diabetic rats): fully reversed; onset of anti-allodynia (summary in discussion) (STZ-diabetic rats; STZ-diabetic rats): relatively rapid onset; duration of action (STZ-diabetic rats; STZ-diabetic rats, sodium salt, i.p. 3 mg/kg dose): > 3 h; onset of relief of tactile allodynia (STZ-diabetic rats; [5]): rapid onset; relief of tactile allodynia (STZ-diabetic rats; [5]): dose-dependent relief of tactile allodynia; time of peak effects post-dosing (STZ-diabetic rats; [5]): 0.25 to 0.75 h; relief of tactile allodynia (STZ-diabetic rats; STZ-diabetic rats, sodium salt, i.p. bolus 0.0003 to 3 mg/kg, listed as L-161,638, Sodium Salt): relief of tactile allodynia; duration of action (STZ-diabetic rats; STZ-diabetic rats, sodium salt, i.p. doses in the range 0.0003-0.03 μg/kg): 3 h

Question: Which “extent and duration of the anti-allodynic response, oral compared with i.p. route” value [3] does the source give for COc1ccc(Cn2cnc3c2C[C@@H](C(=O)O)N(C(=O)C(c2ccccc2)c2ccccc2)C3)cc1C [PD-121,981] here?
Answer: The value was “similar”.

Question: What about the “antinociception in the contralateral hindpaw” value (“antinociception” below) ([1]; i.p. doses up to 3 mg/kg) of the same compound?
Answer: Its value is “insignificant antinociception”.

Question: And the “doses required to produce significant relief of tactile allodynia in CCI-rats compared with STZ-diabetic rats” value [2]?
Answer: Its value is “considerably larger doses”.

Question: What about the duration of action ([2]; CCI-rats, 1 mg/kg, irrespective of dosing route (oral or i.p.)) of the same compound?
Answer: The duration of action was 3 h.

Question: What about the “anti-allodynia (relief of tactile allodynia) in the ipsilateral hindpaw” value [2, 6] of the same compound?
Answer: Its value is “dose-dependent anti-allodynia; also recorded: dose-dependent relief of tactile allodynia”.

Question: And the durations of action [2, 6]?
Answer: Its durations of action is 2 to 3 h.

Question: And the “onset of anti-allodynia in the ipsilateral hindpaw” value [2, 6]?
Answer: Its value is “rapid onset”.

Question: And the “time of peak anti-allodynia in the ipsilateral hindpaw post-dosing” value [2, 6]?
Answer: Its value is 0.5 to 0.75 h and 0.5 to 1.0 h.

Question: What about the “relief of tactile allodynia (summary in discussion)” value (STZ-diabetic rats) of the same compound?
Answer: The value was “potent relief of tactile allodynia”.

Question: And the duration of action (STZ-diabetic rats; STZ-diabetic rats, 0.1 μg/kg, irrespective of dosing route (oral or i.p.))?
Answer: The duration of action was “exceeded 3 h”.

Question: And the onset of action (STZ-diabetic rats; [7])?
Answer: The onset of action was “rapid onset of action”.

Question: What about the “relief of tactile allodynia” value (STZ-diabetic rats; [7]) of the same compound?
Answer: The value was “dose-dependent relief of tactile allodynia”.

Question: What about the “time of peak anti-allodynia post-dosing” value (STZ-diabetic rats; [7]) of the same compound?
Answer: The value was 0.5 to 1.0 h.

Question: What about the duration of action (STZ-diabetic rats; STZ-diabetic rats, i.p. doses in the range 0.03-3.0 μg/kg) of the same compound?
Answer: The duration of action was over 3 h.

Question: And the “reversal of tactile allodynia in the hindpaws” value (STZ-diabetic rats; STZ-diabetic rats)?
Answer: Its value is “fully reversed”.

Question: What about the “extent and duration of the anti-allodynic response, oral compared with i.p. route” value (STZ-diabetic rats; STZ-diabetic rats, oral bolus 0.1 μg/kg vs same dose i.p.) of the same compound?
Answer: The value was “similar”.

Question: And the “onset of anti-allodynia (summary in discussion)” value (STZ-diabetic rats; STZ-diabetic rats)?
Answer: The value was “relatively rapid onset”.

Question: With Cc1cc(Cn2cnc3c2C[C@@H](C(=O)O)N(C(=O)C(c2ccccc2)c2ccccc2)C3)ccc1N(C)C [PD-123,319] as the compound, how does the “antinociception” value ([1]; single bolus i.p. 1-10 mg/kg, n=3-4) read?
Answer: The value was “antinociception in the contralateral hindpaw”.

Question: And the “antinociception” value ([1]; single bolus i.v. 0.1-0.3 mg/kg, n=2)?
Answer: Its value is “antinociception in the contralateral hindpaw”.

Question: What about the “relief of tactile allodynia in the ipsilateral (injured) hindpaw” value ([2]; CCI-rats, single bolus i.p. 1-10 mg/kg, n=3-4) of the same compound?
Answer: Its value is “dose-dependent (A) relief of tactile allodynia”.

Question: What about the “relief of tactile allodynia in the ipsilateral (injured) hindpaw” value ([2]; CCI-rats, single bolus i.v. 0.1-0.3 mg/kg, n=2) of the same compound?
Answer: The value was “dose-dependent (A) relief of tactile allodynia”.

Question: And the “relief of tactile allodynia” value (STZ-diabetic rats; STZ-diabetic rats (8-wks after STZ), single bolus i.p. 0.3-3.0 mg/kg, n=4)?
Answer: Its value is “dose-dependent relief of tactile allodynia”.
